Laboratory results: patent US10934302B1, “SHP2 phosphatase inhibitors and methods of use thereof” (Relay Therapeutics, Inc., priority 2018, dated 2021)

Test system: KYSE520
Experiment: Combination growth inhibition (isobologram), KYSE520
Format: cell-based
Conditions: erlotinib (EGFR inhibitor) combined with a SHP2 inhibitor of the instant disclosure; KYSE520 cells; FIG. 1A

Structure (SMILES) | growth inhibition (isobologram)
C#Cc1cccc(Nc2ncnc3cc(OCCOC)c(OCCOC)cc23)c1 [erlotinib] | synergistic growth inhibition

Test system: NCI—H3122 (non-small cell lung cancer cells)
Experiment: Combination growth inhibition (isobologram), NCI-H3122
Format: cell-based
Conditions: crizotinib (ALK inhibitor) combined with a SHP2 inhibitor of the instant disclosure, FIG. 1B

Structure (SMILES) | growth inhibition (isobologram)
C[C@@H](Oc1cc(-c2cnn(C3CCNCC3)c2)cnc1N)c1c(Cl)ccc(F)c1Cl [crizotinib] | synergistic growth inhibition

Test system: NCI—N87 (gastric cancer cells)
Experiment: Combination growth inhibition (isobologram), NCI-N87
Format: cell-based
Conditions: selumetinib (MEK inhibitor) combined with a SHP2 inhibitor of the instant disclosure, FIG. 2A

Structure (SMILES) | growth inhibition (isobologram)
Cn1cnc2c(F)c(Nc3ccc(Br)cc3Cl)c(C(=O)NOCCO)cc21 [selumetinib] | synergistic growth inhibition

Test system: NCI—H23 (KRAS G12C mutant non-small cell lung cancer cells)
Experiment: Combination growth inhibition (isobologram), NCI-H23
Format: cell-based
Conditions: ARS-1620 (KRAS G12C inhibitor) combined with a SHP2 inhibitor of the instant disclosure, FIG. 2B

Structure (SMILES) | growth inhibition (isobologram)
C=CC(=O)N1CCN(c2ncnc3c(F)c(-c4c(O)cccc4F)c(Cl)cc23)CC1 [ARS-1620] | synergistic growth inhibition

Test system: HuH-7 (hepatocellular carcinoma cells)
Experiment: Combination growth inhibition (isobologram), HuH-7
Format: cell-based
Conditions: AZD-4547 (FGFR inhibitor) combined with a SHP2 inhibitor of the instant disclosure; HuH-7 cells; FIG. 3

Structure (SMILES) | growth inhibition (isobologram)
COc1cc(CCc2cc(NC(=O)c3ccc(N4CC(C)NC(C)C4)cc3)n[nH]2)cc(OC)c1 (stereo not drawn) [AZD-4547] | synergistic growth inhibition

Biological target: SHP2 (Homo sapiens (Human), UniProt Q06124)
Sequence (Q06124 whole entry): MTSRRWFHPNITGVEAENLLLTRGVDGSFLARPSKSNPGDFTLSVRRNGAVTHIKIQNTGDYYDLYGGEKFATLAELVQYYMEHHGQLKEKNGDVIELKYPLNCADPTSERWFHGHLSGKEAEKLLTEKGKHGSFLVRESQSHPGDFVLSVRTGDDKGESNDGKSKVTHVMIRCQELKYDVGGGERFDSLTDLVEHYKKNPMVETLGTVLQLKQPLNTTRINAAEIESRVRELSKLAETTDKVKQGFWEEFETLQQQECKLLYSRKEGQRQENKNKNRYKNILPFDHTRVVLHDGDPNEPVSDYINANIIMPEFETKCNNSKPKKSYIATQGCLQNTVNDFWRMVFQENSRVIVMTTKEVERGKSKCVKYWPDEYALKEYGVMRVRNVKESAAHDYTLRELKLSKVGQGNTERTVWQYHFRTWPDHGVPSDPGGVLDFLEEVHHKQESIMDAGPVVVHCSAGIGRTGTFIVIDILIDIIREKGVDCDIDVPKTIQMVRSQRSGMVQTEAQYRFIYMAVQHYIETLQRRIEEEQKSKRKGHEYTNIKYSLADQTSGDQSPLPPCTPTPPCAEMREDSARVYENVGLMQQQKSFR
Experiment: SHP2 allosteric inhibition assay (DiFMUP prompt fluorescence)
Format: biochemical
Conditions: 0.25 nM SHP2 activated with 0.5 μM peptide IRS1_pY1172(dPEG8)pY1222; substrate DiFMUP

Structure (SMILES) | IC50 [nM]
Cc1nc(N2CCC3(CC2)Oc2ccccc2[C@H]3N)c(CO)nc1-c1cccc(Cl)c1Cl [Example 268, (R)-(3-(3-amino-3H-spiro[benzofuran-2,4′-piperidin]-1′-yl)-6-(2,3-dichlorophenyl)-5-methylpyrazin-2-yl)methanol] | ≤ 50
N[C@@H]1c2ccccc2CC12CCN(c1cnc(N3CCCC3c3ccccc3)cn1)CC2 (stereo in doubt) [Example 164, (3S)-1′-{5-[(2S)-2-phenylpyrrolidin-1-yl]pyrazin-2-yl}-1,3-dihydrospiro[indene-2,4′-piperidin]-3-amine] | ≤ 50
Cn1cc2c(N3CCC4(CC3)Cc3ccccc3[C@H]4N)ncnc2n1 [Example 182] | > 10000
Nc1nccc(Sc2cnc(N3CCC4(CC3)Cc3c(F)cccc3[C@H]4N)cn2)c1Cl [Example 139, (S)-1′-(5-((2-amino-3-chloropyridin-4-yl)thio)pyrazin-2-V)-4-fluoro-1,3-dihydrospiro[indene-2,4′-piperidin]-1-amine] | ≤ 50
CC(=O)N1CCN(c2n[nH]c3nc(N4CCC5(CC4)Cc4ccccc4[C@@H]5N)cnc23)c2ccccc21 [Example 1, 1-(4-{6-[(3R)-3-amino-1,3-dihydrospiro[indene-2,4′-piperidin]-1′-yl]-1H-pyrazolo[3,4-b]pyrazin-3-yl}-1,2,3,4-tetrahydroquinoxalin-1-yl)ethan-1-one] | ≤ 50
Cn1cc(-c2ccc3c(n2)CCCN3c2n[nH]c3nc(N4CCC5(CC4)Cc4cccc(F)c4[C@H]5N)cnc23)cn1 [Example 48] | ≤ 50
N[C@@H]1c2ccccc2CC12CCN(c1ncc(SCC3CC3)nc1CO)CC2 [Example 244, (S)-(3-(1-amino-1,3-dihydrospiro[indene-2,4′-piperidin]-1′-yl)-6-((cyclopropylmethyl)thio)pyrazin-2-yl)methanol] | ≤ 50
N[C@@H]1c2ccccc2CC12CCN(c1nc3[nH]nc(Sc4ccnc(Cl)c4Cl)c3nc1CO)CC2 [Example 88] | ≤ 50
Cc1c(-c2ccccc2Cl)nc2sc(N3CCC4(CC3)Cc3ccccc3[C@H]4N)nn12 [Example 144, (S)-1′-(6-(2-chlorophenyl)-5-methylimidazo[2,1-b][1,3,4]thiadiazol-2-yl)-1,3-dihydrospiro[indene-2,4′-piperidin]-1-amine] | ≤ 50
N[C@@H]1c2ccccc2CC12CCN(c1cnc3c(Sc4ccnc(Cl)c4Cl)n[nH]c3n1)CC2 [Example 91] | 1000 to 10000
CN1CCN(c2n[nH]c3nc(N4CCC5(CC4)Cc4ccccc4[C@H]5N)cnc23)c2ccc(C#N)cc21 [Example 43] | ≤ 50
Cn1cc(-c2ccc3c(n2)CCCN3c2n[nH]c3nc(N4CCC5(CC4)Oc4ccccc4[C@H]5N)cnc23)cn1 [Example 60] | ≤ 50
CO[C@H]1C[C@H](N2CCN(c3n[nH]c4nc(N5CCC6(CC5)Cc5ccccc5C6N)cnc34)c3ccc(C#N)cc32)C1 (stereo partly drawn) [Example 33] | ≤ 50
